The subject of data set [1] is mouse. Briefly: Toxicity test, intraperitoneal. It counts as in vivo. The note with it: 100 mg/kg.
Data set [2] has as its system peripheral blood leukocytes of CDF1/Crj mice. Briefly: Enhancing the number of leukocytes in cyclophosphamide-treated mice. It counts as in vivo, mouse. The conditions noted are these: cyclophosphamide 150 mg/kg p.o., then compound 0.063 mg/kg/day s.c. for 5 days; mice without cyclophosphamide = 100%.
Experimental: Six week old female CDF1/Crj mice (5 animals/group) were subjected to the experiment. […] From the next day, each animal was administered subcutaneously with the compound suspended in 5% glucose at the following dosages for five days once a day. On the next day after completion of the administration, about 100 μl of peripheral blood was collected from orbital vein using an EDTA-treated glass capillary. Then, the number of lekocytes was counted using a automatic cell analyzer (Sysmex K-2000, Toa Medical Electronics, Japan)
Data set [3] relates to bone marrow cells of BALB/c mice. The experiment in a line: Enhancing proliferation of bone marrow cells of mice (MTT reduction method). It counts as cell-based, mouse. The conditions noted are these: concentration giving 1.3 or more times the proliferation of the group without test compound; 3 days incubation. How it is done:
To an RPMI 1640 culture medium [Bio-Wittaker Inc. (hereinafter abbreviated as BW), USA] containing 2×10^6 /ml of bone marrow cells of BALB/c mice, 2 mM of L-glutamine, 20 ug/ml of gentamicin (Flow Laboratories, Inc., Scotland), 10% fetal calf serum (BW, USA) was added a test compound in an adequate concentration, which was incubated at 37° C. for 3 days in 5% carbon dioxide in air followed by determination of proliferation of the bone marrow cells by the MTT reduction method [Tada et al., Journal of Immunological Methods, Vol. 93, p.157, 1986].
For orientation: Formazan colour is commonly taken as a measure of viable cells.

Where only a bound is given, the exact number is not on record here.

Consider “(2S,6R)-2-amino-6,7-bis(PamO)-4-THT-Gly-Gly-Gly-Glu-Thr-Thr-OH [Compound 3]”, for which, in data set [1], the Mortality result was “No mouse administered intraperitoneally with Compound 3 at a dose of 100 mg/kg was found dead”.
As for “(2R,6R)-2-amino-6,7-bis(PamO)-4-THT-Gly-Gly-Gly-Glu-Thr-Thr-OH [Compound 2]”, the Number of leukocytes in data set [2] amounted to 102%. Also, the “Minimal Effective Concentration (MEC)” value in data set [3] is less than 0.156 ng/mL.
Consider “(2R,6R)-2-amino-6,7-bis(PamO)-4-THT-NH(CH2)7 CO-Glu-OH hydrochloride [Compound 36]”, for which the “Minimal Effective Concentration (MEC)” value in data set [3] was less than 0.156 ng/mL.

The record behind these values is US5478808A, “2-amino-6,7-dihydroxy-4-thiaheptanoic acid derivatives, production and use thereof” (Takeda Chemical Industries, Ltd., priority 1992, dated 1995).
